*1 amine or outer side, *2 acyl side, *3 side chain or, on linkers, in order; H or OH if unused. Where a SMILES comes first, the peptide text is derived from it. Bridges are numbered along the chain shown (N, C = ends). Side-chain parts run from the residue outwards. [ ]: non-standard residue; d: D form. The star is where a group is joined. ξ: configuration not given here. X39 = O=C(O)CCCCCCCCCCCCCCCCC(=O)NC(CCC(=O)NCCCCCOCC(=O)*)C(=O)O; X12 = O=C(O)CCCCCCCCCCCCCCCCC(=O)C[C@@H](CCC(=O)*)C(=O)O; Me3N+(CH2)2O(CH2)2O(CH2)2CO = C[N+](C)(C)CCOCCOCCC(=O)*; PEG12 = NCCOCCOCCOCCOCCOCCOCCOCCOCCOCCOCCOCCOCCC(=O)O; CH2CH2OCH2CH2OCH2CH2NMe3+ = C[N+](C)(C)CCOCCOCC*; Trp(7-Me) = Cc1cccc2c(C[C@H](N)C(=O)O)c[nH]c12; C18 diacid = O=C(O)CCCCCCCCCCCCCCCCC(=O)*; γGlu = O=C(O)[C@H](CCC(=O)[*:2])N[*:1]; 2Nal = N[C@@H](Cc1ccc2ccccc2c1)C(=O)O; AEF = NCCOc1ccc(C[C@H](N)C(=O)O)cc1; ξγGlu = O=C(O)C(CCC(=O)[*:2])N[*:1]; X2 = C[N+](C)(C)C[C@@H](CC(=O)O)N*; 3Pal = N[C@@H](Cc1cccnc1)C(=O)O; Lys(Me) = CNCCCC[C@H](N)C(=O)O; NMeK = CN[C@@H](CCCCN)C(=O)O; PEG4 = NCCOCCOCCOCCOCCC(=O)O; Pen = CC(C)(S)[C@H](N)C(=O)O; Suc = O=C(CCC(=O)[*:2])[*:1]; Thp = NC1(C(=O)O)CCOCC1; X1 = C[N+](C)(C)CCCCC*; AEEA = NCCOCCOCC(=O)O; ClAc = O=C(CCl)*; Sar = CNCC(=O)O
Assays:
[1] = test system: IL-23-stimulated phosphorylated STAT3 in peripheral blood mononuclear cells (PBMCs); assay: PBMC pSTAT3 Assay; format: cell-based; settings: PBMCs from healthy donors; 30 min preincubation with peptide; IL-23 5 ng/mL for 30 min; phospho-STAT3 by MSD
In short: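 Healthy-donor PBMCs expanded 4 days on anti-CD3 with 100 ng/mL IL-1β, starved ~4 h in RPMI-0.1% BSA, preincubated 30 min with peptide, then stimulated 30 min at 37 °C with 5 ng/mL IL-23. Lysate pSTAT3 measured by MSD phospho-STAT panel; IC50 derived.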

[2] = target: T1, IL-23R (Homo sapiens, UniProt Q5VWK5); assay: IL23R Reporter Assay; format: cell-based; settings: HEK293 cells containing IL-23R, IL-12Rβ1 and STAT-inducible firefly luciferase reporter; 10 ng/mL IL-23 (EC90); 5 h
T1 construct: HEK293 cells containing IL-23R, IL-12Rβ1 and a firefly luciferase reporter gene driven by a STAT-inducible promoter (Promega); host or cells: HEK293
T1 sequence (Q5VWK5 24-629): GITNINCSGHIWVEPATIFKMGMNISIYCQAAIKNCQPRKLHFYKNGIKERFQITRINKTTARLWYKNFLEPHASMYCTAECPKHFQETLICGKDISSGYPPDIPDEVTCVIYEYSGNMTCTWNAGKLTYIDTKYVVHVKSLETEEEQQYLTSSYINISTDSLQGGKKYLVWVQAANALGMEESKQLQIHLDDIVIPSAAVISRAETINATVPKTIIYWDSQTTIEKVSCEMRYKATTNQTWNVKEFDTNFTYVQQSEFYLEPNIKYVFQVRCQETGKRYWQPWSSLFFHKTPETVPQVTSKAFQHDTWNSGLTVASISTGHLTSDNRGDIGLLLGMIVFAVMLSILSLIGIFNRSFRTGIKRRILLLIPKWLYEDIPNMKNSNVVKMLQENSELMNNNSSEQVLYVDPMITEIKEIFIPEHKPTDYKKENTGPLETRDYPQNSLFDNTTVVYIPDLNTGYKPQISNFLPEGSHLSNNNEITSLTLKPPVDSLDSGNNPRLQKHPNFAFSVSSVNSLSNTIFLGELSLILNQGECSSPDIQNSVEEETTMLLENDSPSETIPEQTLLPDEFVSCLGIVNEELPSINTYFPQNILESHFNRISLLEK
In short: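 HEK293 cells carrying IL-23R, IL-12Rβ1 and a STAT-driven firefly luciferase reporter (4000 cells/well) received compound, then 10 ng/mL IL-23 solution (EC90), and were incubated for 5 h at 37° C. BioGlo luminescence was normalised to IL-23 alone (0%) and 30 μM control inhibitor (100%). IC50 came from a 4-parameter Hill fit.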

IC50 [2] [nM]	SMILES	IC50 [1] [nM]
50 to 500	CC(=O)NCCCC[C@@H]1NC(=O)[C@H](Cc2c[nH]c3c(C)cccc23)NC(=O)[C@H]([C@@H](C)O)NC(=O)[C@H](CC(N)=O)NC(=O)[C@@H](NC(C)=O)C(C)(C)SSC(C)(C)[C@@H](C(=O)N[C@@H](Cc2ccc(OCCN)cc2)C(=O)N[C@@H](Cc2ccc3ccccc3c2)C(=O)NC2(C(=O)N[C@@H](CCCCNC(=O)CCC(=O)N[C@H](CC(=O)O)C[N+](C)(C)C)C(=O)N[C@@H](CC(N)=O)C(=O)N[C@@H](Cc3cccnc3)C(=O)N(C)[C@@H](CCCCNC(=O)COCCOCCNC(=O)COCCOCCNC(=O)CC[C@H](NC(=O)CCCCCCCCCCCCCCCCC(=O)O)C(=O)O)C(N)=O)CCOCC2)NC1=O [compound 28, MeCO-Pen(3)-N-T-7MeW-K(Ac)-Pen(3)-AEF-2Nal-THP-K(d)-N-3Pya-NMeK(PEG2PEG2gEC18OH)-CONH2]	< 0.5
50 to 500	CC(=O)N(C)CCCC[C@H](NC(=O)CNC(=O)[C@H](Cc1ccc2ccccc2c1)NC(=O)[C@H](Cc1ccc(OCCCCC[N+](C)(C)C)cc1)NC(=O)[C@H]1NC(=O)[C@H](CCCCNC(=O)COCCOCCNC(=O)COCCOCCNC(=O)CC[C@H](NC(=O)CCCCCCCCCCCCCCCCC(=O)O)C(=O)O)NC(=O)[C@H](Cc2c[nH]c3c(C)cccc23)NC(=O)[C@H]([C@@H](C)O)NC(=O)[C@H](CC(=O)N(C)C)NC(=O)[C@@H](NC(=O)CCOCCOCC[N+](C)(C)C)C(C)(C)SSC1(C)C)C(=O)N[C@@H](CC(N)=O)C(=O)N[C@@H](Cc1cccnc1)C(=O)N(C)CC(=O)N(C)C [compound 157, cPEG3aCO-Pen(3)-N(N(Me)2)-T-7MeW-K(PEG2PEG2gEC18OH)-Pen(3)-APEG3F-2Nal-THP-K(NMeAc)-N-3Pya-Sar-CON(Me)2] ({Me3N+(CH2)2O(CH2)2O(CH2)2CO}-[Pen]D(NMe2)T[Trp(7-Me)]K([AEEA-AEEA-γGlu-C18 diacid])[Pen]Y(X1)[2Nal]G[Lys(Me)](Ac)N[3Pal][Sar]-NMe2; disulfide 1-6)	0.5 to 5
< 50	CC(=O)NCCCC[C@@H]1NC(=O)[C@H](Cc2c[nH]c3c(C)cccc23)NC(=O)[C@H]([C@@H](C)O)NC(=O)[C@H](CC(N)=O)NC(=O)[C@@H](NC(=O)[C@@H](CCCNC(=N)N)NC(C)=O)C(C)(C)SSC(C)(C)[C@@H](C(=O)N[C@@H](Cc2ccc(OCCN)cc2)C(=O)N[C@@H](Cc2ccc3ccccc3c2)C(=O)NC2(C(=O)N[C@@H](CCCCNC(=O)CCOCCOCCOCCOCCNC(=O)CCl)C(=O)N[C@@H](CC(N)=O)C(=O)N[C@@H](Cc3cccnc3)C(=O)N(C)CC(=O)N[C@@H](CCCCNC(=O)COCCOCCNC(=O)COCCOCCNC(=O)CC[C@H](NC(=O)CCCCCCCCCCCCCCCCC(=O)O)C(=O)O)C(N)=O)CCOCC2)NC1=O [compound 4, MeCO-r-Pen(3)-N-T-7MeW-K(Ac)-Pen(3)-AEF-2Nal-THP-K(PEG4AcCl)-N-3Pya-Sar-K(PEG2PEG2gEC18OH)-CONH2] (Ac-[dR][Pen]NT[Trp(7-Me)]K(Ac)[Pen][AEF][2Nal][Thp]K([PEG4-ClAc])N[3Pal][Sar]K([AEEA-AEEA-γGlu-C18 diacid])-NH2; disulfide 2-7)	< 0.5
50 to 500	CC(=O)NCCCC[C@@H]1NC(=O)[C@H](Cc2c[nH]c3c(C)cccc23)NC(=O)[C@H]([C@@H](C)O)NC(=O)[C@H](CC(N)=O)NC(=O)[C@@H](NC(=O)[C@@H](CCCNC(=N)N)NC(C)=O)C(C)(C)SSC(C)(C)[C@@H](C(=O)N[C@@H](Cc2ccc(OCCN)cc2)C(=O)N[C@@H](Cc2ccc3ccccc3c2)C(=O)NC2(C(=O)N[C@@H](CCCCNC(=O)CCC(=O)N[C@H](CC(=O)O)C[N+](C)(C)C)C(=O)N[C@@H](CC(N)=O)C(=O)N[C@@H](Cc3cccnc3)C(=O)N(C)[C@@H](CCCCNC(=O)COCCOCCNC(=O)COCCCCCNC(=O)CCC(NC(=O)CCCCCCCCCCCCCCCCC(=O)O)C(=O)O)C(N)=O)CCOCC2)NC1=O (stereo partly shown) [compound 41, MeCO-r-Pen(3)-N-T-7MeW-K(Ac)-Pen(3)-AEF-2Nal-THP-K(d)-N-3Pya-NMeK(PEG2PEG2gEC18OH)-CONH2] (Ac-[dR][Pen]NT[Trp(7-Me)]K(Ac)[Pen][AEF][2Nal][Thp]K([Suc-X2])N[3Pal][NMeK]([AEEA-X39])-NH2; disulfide 2-7)	< 0.5
50 to 500	CC(=O)N(C)CCCC[C@@H]1NC(=O)[C@H](Cc2c[nH]c3c(C)cccc23)NC(=O)[C@H]([C@@H](C)O)NC(=O)[C@H](CC(=O)N(C)C)NC(=O)[C@@H](NC(=O)CCOCCOCC[N+](C)(C)C)C(C)(C)SSC(C)(C)[C@@H](C(=O)N[C@@H](Cc2ccc(OCCOCCOCC[N+](C)(C)C)cc2)C(=O)N[C@@H](Cc2ccc3ccccc3c2)C(=O)NC2(C(=O)N[C@@H](CCCCNC(=O)COCCOCCNC(=O)COCCOCCNC(=O)CC[C@H](NC(=O)CCCCCCCCCCCCCCCCC(=O)O)C(=O)O)C(=O)N[C@@H](CC(N)=O)C(=O)N[C@@H](Cc3cccnc3)C(=O)N(C)CC(=O)N(C)C)CCOCC2)NC1=O [compound 156, cPEG3aCO-Pen(3)-N(N(Me)2)-T-7MeW-K(NMeAc)-Pen(3)-APEG3F-2Nal-THP-K(PEG2PEG2gEC18OH)-N-3Pya-Sar-CON(Me)2] ({Me3N+(CH2)2O(CH2)2O(CH2)2CO}-[Pen]D(NMe2)T[Trp(7-Me)][Lys(Me)](Ac)[Pen]Y(CH2CH2OCH2CH2OCH2CH2NMe3+)[2Nal][Thp]K([AEEA-AEEA-γGlu-C18 diacid])N[3Pal][Sar]-NMe2; disulfide 1-6)	< 0.5
< 50	CC(=O)NCCCC[C@@H]1NC(=O)[C@H](CC2CNc3c(C)cccc32)NC(=O)[C@H]([C@@H](C)O)NC(=O)[C@H](CC(N)=O)NC(=O)[C@@H](NC(C)=O)C(C)(C)SSC(C)(C)[C@@H](C(=O)N[C@@H](Cc2ccc(OCCN)cc2)C(=O)N[C@@H](Cc2ccc3ccccc3c2)C(=O)NC2(C(=O)N[C@@H](CCCCNC(=O)CCOCCOCCOCCOCCOCCOCCOCCOCCOCCOCCOCCOCCNCCC[C@H](NC(=O)CCCCCCCCCCCCCCCCC(=O)O)C(=O)O)C(=O)N[C@@H](C)C(=O)N[C@@H](Cc3ccccc3)C(=O)N(C)CC(N)=O)CCOCC2)NC1=O (stereo partly drawn) [compound 100, MeCO-Pen(3)-N-T-7MeW-K(Ac)-Pen(3)-AEF-2Nal-THP-K(PEG12gEC18OH)-N-3Pya-Sar-CONH2]	< 0.5
< 50	CC(=O)NCCCC[C@@H]1NC(=O)[C@H](Cc2c[nH]c3c(C)cccc23)NC(=O)[C@H]([C@@H](C)O)NC(=O)[C@H](CC(N)=O)NC(=O)[C@@H](NC(=O)[C@@H](CCCCNC(=O)COCCOCCNC(=O)COCCOCCNC(=O)CCC(NC(=O)CCCCCCCCCCCCCCCCC(=O)O)C(=O)O)NC(C)=O)C(C)(C)SSC(C)(C)[C@@H](C(=O)N[C@@H](Cc2ccc(OCCN)cc2)C(=O)N[C@@H](Cc2ccc3ccccc3c2)C(=O)NC2(C(=O)N[C@@H](CCC(=O)O)C(=O)N[C@@H](CC(N)=O)C(=O)N[C@@H](Cc3cccnc3)C(=O)N(C)[C@@H](CCCCNC(=O)CCC(=O)N[C@H](CC(=O)O)C[N+](C)(C)C)C(N)=O)CCOCC2)NC1=O (stereo partly shown) [compound 42, MeCO-k(PEG2PEG2gEC18OH)-Pen(3)-N-T-7MeW-K(Ac)-Pen(3)-AEF-2Nal-THP-E-N-3Pya-NMeK(d)-CONH2] (Ac-[dK]([AEEA-AEEA-ξγGlu-C18 diacid])[Pen]NT[Trp(7-Me)]K(Ac)[Pen][AEF][2Nal][Thp]EN[3Pal][NMeK]([Suc-X2])-NH2; disulfide 2-7)	< 0.5
< 50	CC(=O)N(C)CCCC[C@@H]1NC(=O)[C@H](Cc2c[nH]c3c(C)cccc23)NC(=O)[C@H]([C@@H](C)O)NC(=O)[C@H](CCCCNC(=O)CCOCCOCCOCCOCCOCCOCCOCCOCCOCCOCCOCCOCCNC(=O)CC[C@H](CC(=O)CCCCCCCCCCCCCCCCC(=O)O)C(=O)O)NC(=O)[C@@H](NC(=O)CCOCCOCC[N+](C)(C)C)C(C)(C)SSC(C)(C)[C@@H](C(=O)N[C@@H](Cc2ccc(OCCCCC[N+](C)(C)C)cc2)C(=O)N[C@@H](Cc2ccc3ccccc3c2)C(=O)NC2(C(=O)N[C@@H](CCCCN(C)C(C)=O)C(=O)N[C@@H](CC(N)=O)C(=O)N[C@@H](Cc3cccnc3)C(=O)N(C)CC(=O)N(C)C)CCOCC2)NC1=O [compound 125, cPEG3aCO-Pen(3)-K(PEG12gEC18OH)-T-7MeW-K(NMeAc)-Pen(3)-TMAPF-2Nal-THP-K(NMeAc)-N-3Pya-Sar-CON(Me)2] ({Me3N+(CH2)2O(CH2)2O(CH2)2CO}-[Pen]K([PEG12-X12])T[Trp(7-Me)][Lys(Me)](Ac)[Pen]Y(X1)[2Nal][Thp][Lys(Me)](Ac)N[3Pal][Sar]-NMe2; disulfide 1-6)	0.5 to 5

Source: patent US20260250320A1, “LIPIDATED PEPTIDE INHIBITORS OF INTERLEUKIN-23 RECEPTOR” (Janssen Pharmaceutica NV, priority 2023, published 2026)
